Results as given in PubChem BioAssay (NCI).
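Step 1: Grow cells in 96-well plates. Step 2: Expose to compound for 48 hours at 5 concentrations. Step 3: Interpolate endpoints linearly; if unreached, use highest concentration. GI50: concentration for 50% inhibition of growth. The concentration for full growth arrest is given as TGI.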

How the values were obtained:
Test in all cases: NCI tumour cell line growth inhibition, 48 h
[1] = tested on: OVCAR-8 ovarian
[2] = tested on: SK-MEL-28 melanoma
[3] = tested on: PC-3 prostate
[4] = tested on: LOX IMVI melanoma
[5] = tested on: NCI-H522 lung
[6] = tested on: HL-60(TB) leukemia
[7] = tested on: MALME-3M melanoma
[8] = tested on: COLO 205 colon
[9] = tested on: DU-145 prostate
[10] = tested on: NCI-H226 lung

C=C(C)[C@H]1CC23C(=O)[C@@](C)(C[C@H]2C1(C)C)C(=O)C(C(=O)C(C)C)=C3O gave a TGI [1] of 40.2 µM, a TGI [2] of 28.6 µM and a TGI [3] of 33 µM. The TGI [4] was 38.9 µM, the TGI [5] was 36.8 µM and the TGI [6] was 41.6 µM. For the same compound, the TGI [7] was 28.6 µM, the TGI [8] was 23.1 µM and the TGI [9] was over 100 µM. It also gave a TGI [10] of 30.3 µM.
Work on O=C(Nc1nn(C(=O)c2cccnc2)c(=O)s1)c1ccc(Cl)cc1 yielded a TGI [1] of over 100 µM, a TGI [2] of over 100 µM and a TGI [3] of over 100 µM. It also gave a TGI [4] of over 100 µM, a TGI [5] of 51.7 µM and a TGI [6] of over 100 µM. For the same compound, the TGI [7] was 91.5 µM, the TGI [8] was over 100 µM and the TGI [9] was over 100 µM. For the same compound, the TGI [10] was 77.2 µM.
NCCCCNCCCN1CCOC1=O was tested, and the TGI [1] was over 100 µM, the TGI [2] was over 100 µM and the TGI [3] was over 100 µM. It also gave a TGI [4] of over 100 µM, a TGI [5] of over 100 µM and a TGI [6] of over 100 µM. The TGI [7] was over 100 µM, the TGI [8] was over 100 µM and the TGI [9] was over 100 µM. For the same compound, the TGI [10] was over 100 µM.
For CCN(CC)CCCCNc1c2ccc(Cl)cc2nc2ccc(OC)cc12, the GI50 [1] was 0.406 µM, the TGI [1] was 3.35 µM and the GI50 [2] was 1.71 µM. It also gave a TGI [2] of 3.2 µM, a GI50 [3] of 0.482 µM and a TGI [3] of 2.74 µM. The GI50 [4] was 0.213 µM, the TGI [4] was 0.583 µM and the GI50 [5] was 0.397 µM. For the same compound, the TGI [5] was 2.66 µM, the GI50 [6] was 1.03 µM and the TGI [6] was 3.2 µM. For the same compound, the GI50 [7] was 1.54 µM, the TGI [7] was 3.65 µM and the GI50 [8] was 0.24 µM. The TGI [8] was 1.32 µM, the GI50 [9] was 0.34 µM and the TGI [9] was 1.62 µM. It also gave a GI50 [10] of 1.32 µM and a TGI [10] of 3.35 µM.
O=C1C=CC(=O)c2c(O)c(N3CCC[C@@H]3CO)c(Cl)c(O)c21 was tested, and the TGI [1] was 4.13 µM, the TGI [2] was 3.24 µM and the TGI [3] was 4.78 µM. For the same compound, the TGI [4] was 3.16 µM, the TGI [5] was 2.36 µM and the TGI [6] was 0.734 µM. For the same compound, the TGI [7] was 3.07 µM, the TGI [8] was 2.88 µM and the TGI [9] was 3.28 µM. It also gave a TGI [10] of 3.16 µM.
COc1ccc([C@]23CCC4(OCC(C)(C)CO4)[C@H]4CON(O[C@H](O[C@@H]5CCCCC5C(C)(C)c5ccccc5)C2)[C@@H]43)cc1OC (stereo not given in full) was tested, and the TGI [1] was over 100 µM, the TGI [2] was over 100 µM and the TGI [3] was over 100 µM. For the same compound, the TGI [4] was over 100 µM, the TGI [5] was over 100 µM and the TGI [6] was 44.4 µM. For the same compound, the TGI [7] was over 100 µM, the TGI [8] was over 100 µM and the TGI [9] was over 100 µM. It also gave a TGI [10] of over 100 µM.
For CC1=C(C(=O)OCCO[N+](=O)[O-])C(c2ccccc2[N+](=O)[O-])C(C(=O)OC(C)C)=C(C)N1 (stereo not given), the TGI [1] was 63.7 µM, the TGI [2] was 30.4 µM and the TGI [3] was 23.2 µM. It also gave a TGI [4] of 32.3 µM, a TGI [5] of 30.5 µM and a TGI [6] of over 100 µM. For the same compound, the TGI [7] was 35.9 µM, the TGI [8] was 29.7 µM and the TGI [9] was 50.4 µM. For the same compound, the TGI [10] was 35 µM.
With Clc1ccc(/C(=C/c2ccccc2)Cn2ccnc2)cc1 the TGI [1] was over 100 µM, the TGI [2] was over 100 µM and the TGI [3] was 94 µM. The TGI [4] was 91.1 µM, the TGI [5] was 57.6 µM and the TGI [6] was 46.3 µM. It also gave a TGI [7] of over 100 µM, a TGI [8] of 38.5 µM and a TGI [9] of over 100 µM. For the same compound, the TGI [10] was over 100 µM.
With CC(C)=CCc1c(O)cc2oc(-c3ccc(O)cc3O)cc(=O)c2c1O the TGI [1] was over 100 µM, the TGI [2] was 87.8 µM and the TGI [3] was 98.2 µM. It also gave a TGI [4] of 59.1 µM, a TGI [5] of 53.6 µM and a TGI [6] of 51 µM. It also gave a TGI [7] of 53.7 µM, a TGI [8] of 62.6 µM and a TGI [9] of over 84.8 µM. It also gave a TGI [10] of over 100 µM.
CCC1([N+](=O)[O-])CN(N=O)C1 was tested, and the TGI [1] was over 100 µM, the TGI [2] was over 100 µM and the TGI [3] was over 100 µM. It also gave a TGI [4] of over 100 µM, a TGI [5] of over 100 µM and a TGI [6] of over 100 µM. The TGI [7] was over 100 µM, the TGI [8] was over 100 µM and the TGI [9] was over 100 µM. It also gave a TGI [10] of over 100 µM.
For CCN(CC)C(=S)N/N=C(/c1ccccc1)c1ccccn1, the TGI [1] was 11.3 µM, the TGI [2] was over 79.7 µM and the TGI [3] was over 100 µM. It also gave a TGI [4] of over 35.8 µM, a TGI [5] of over 100 µM and a TGI [6] of 1.59 µM. It also gave a TGI [7] of over 47.1 µM, a TGI [8] of 0.0942 µM and a TGI [9] of over 65.9 µM. It also gave a TGI [10] of 7.65 µM.
For O=c1c2c3c(sc2nc2n1N=C(c1ccc(Br)cc1)CS2)CCCC3, the TGI [1] was over 100 µM, the TGI [2] was over 100 µM and the TGI [3] was over 100 µM. The TGI [4] was over 100 µM, the TGI [5] was over 100 µM and the TGI [6] was over 100 µM. It also gave a TGI [7] of over 100 µM, a TGI [8] of over 100 µM and a TGI [9] of over 100 µM. For the same compound, the TGI [10] was over 100 µM.
Cc1cc(-c2ccccc2)nc2oc(=O)n(C)c12 gave a TGI [1] of over 100 µM, a TGI [2] of over 100 µM and a TGI [3] of over 100 µM. For the same compound, the TGI [4] was over 100 µM, the TGI [5] was over 100 µM and the TGI [6] was over 100 µM. It also gave a TGI [7] of over 100 µM, a TGI [8] of over 100 µM and a TGI [9] of over 100 µM. It also gave a TGI [10] of over 100 µM.
COc1ccc(-c2cc3cc(Cl)cc(Cl)c3oc2=O)cc1OC showed a TGI [1] of over 100 µM, a TGI [2] of over 100 µM and a TGI [3] of over 100 µM. For the same compound, the TGI [4] was over 100 µM, the TGI [5] was over 100 µM and the TGI [6] was over 100 µM. The TGI [7] was over 100 µM, the TGI [8] was over 100 µM and the TGI [9] was over 100 µM. For the same compound, the TGI [10] was over 100 µM.
With Cc1ccc(C)c(COCCOCn2cc(N3CCOCC3)c(=O)[nH]c2=O)c1 the TGI [1] was over 100 µM, the TGI [2] was over 100 µM and the TGI [3] was over 100 µM. It also gave a TGI [4] of over 100 µM, a TGI [5] of over 100 µM and a TGI [6] of over 100 µM. The TGI [7] was over 100 µM, the TGI [8] was over 100 µM and the TGI [9] was over 100 µM. The TGI [10] was over 100 µM.
